# After the bases stand the sugars from the 5' end (letter, count) and the backbone: PS all phosphorothioate, else s phosphorothioate and o phosphodiester by linkage. Methylation of C is not given here. e = 2'-O-(2-methoxyethyl) (MOE); k = constrained ethyl (cEt); d = 2'-deoxy (DNA)
# Assays:
# [1] = target: MALAT1; conditions: ASO, A431, 0.005 µM
# [2] = target: IRF4; conditions: ASO
Sequence,target mRNA inhibition [1] [%],other results
"ACAAGATTCATGAGTA (sugars k3 d10 k3, PS)",27,–
"ACAAGGATCCAAGCTA (sugars k3 d10 k3, PS)",-7,–
"ACAAGTCCTACAATTT (sugars k3 d10 k3, PS)",31,–
"ACACACTACCATATCC (sugars k3 d10 k3, PS)",-3,–
"ACACTGGTTCCTGGAA (sugars k3 d10 k3, PS)",48,–
"ACAGAGCTGCTCCCCG (sugars k3 d10 k3, PS)",18,–
"ACAGCGGTACACTCCT (sugars k3 d10 k3, PS)",42,–
"ACAGGAACAAGTCCTA (sugars k3 d10 k3, PS)",10,–
"ACATAGTTCAACCCAC (sugars k3 d10 k3, PS)",18,–
"ACATGCAATACTGCAG (sugars k3 d10 k3, PS)",3,–
"ACATTCAAGCTGAACT (sugars k3 d10 k3, PS)",-5,–
"ACATTTGGCCTACTCA (sugars k3 d10 k3, PS)",46,–
"ACCAACCCCCAGTTCA (sugars k3 d10 k3, PS)",28,–
"ACCCAAAAGCCCTCTC (sugars k3 d10 k3, PS)",13,–
"ACCCACAAACTTGCCA (sugars k3 d10 k3, PS)",-2,–
"ACCCAGAAGTGTTTAC (sugars k3 d10 k3, PS)",16,–
"ACCCAGTTTGTCAATA (sugars k3 d10 k3, PS)",10,–
"ACCCCCACGCCAACAC (sugars k3 d10 k3, PS)",23,–
"ACCCTCTAAGAGACAT (sugars k3 d10 k3, PS)",35,–

Sequence,target mRNA inhibition [1] [%],other results
"ACCGCACAGCTCGGGC (sugars k3 d10 k3, PS)",5,–
"ACCTCCGTCATGTTTT (sugars k3 d10 k3, PS)",43,–
"ACCTGGGCTCCCGGAG (sugars k3 d10 k3, PS)",19,–
"ACCTGGGTCAGCTGTC (sugars k3 d10 k3, PS)",14,–
"ACCTTCCGCCGCCTCT (sugars k3 d10 k3, PS)",33,–
"ACCTTGAAACCGATTA (sugars k3 d10 k3, PS)",45,–
"ACCTTTTACTCTGATC (sugars k3 d10 k3, PS)",34,–
"ACGGATTTTTACCAAC (sugars k3 d10 k3, PS)",34,–
"ACGGGTCATCAAACAC (sugars k3 d10 k3, PS)",14,–
"ACTAGTGGTTCCCAAT (sugars k3 d10 k3, PS)",33,–
"ACTATAGCATCTGTGG (sugars k3 d10 k3, PS)",9,–
"ACTCCCCCCCGCCTCA (sugars k3 d10 k3, PS)",26,–
"ACTGAAAACTCCCCCC (sugars k3 d10 k3, PS)",-3,–
"ACTGATCACTTTAGAG (sugars k3 d10 k3, PS)",36,–
"TTGAATAGAGGAATGG (sugars k3 d10 k3, PS)",–,"target mRNA inhibition ([2]; SK-MEL-28, 4 µM): 42%"
"TTGATAAAGGCTGAAC (sugars k3 d10 k3, PS)",–,"target mRNA inhibition ([2]; SK-MEL-28, 4 µM): 67%"
"TTGATGTGATAGCTGA (sugars kddddddddddkekek, PS)",–,"target mRNA inhibition ([2]; MM.1R, 1 µM): 12%"
"TTGATGTGATAGCTGA (sugars kdddddddddkekeke, PS)",–,"target mRNA inhibition ([2]; MM.1R, 1 µM): 34%"
"TTGATGTGATAGCTGA (sugars kkdddddddddekeke, PS)",–,"target mRNA inhibition ([2]; MM.1R, 1 µM): 28%"

Sequence,target mRNA inhibition [1] [%],other results
"TTGCATCCATGTCAAC (sugars k3 d10 k3, PS)",–,"target mRNA inhibition ([2]; SK-MEL-28, 4 µM): 47%"
"TTGCCTTCGCTCACTC (sugars k3 d10 k3, PS)",–,"target mRNA inhibition ([2]; SK-MEL-28, 4 µM): 22%"
"TTGCTAGATTCTCCCT (sugars k3 d10 k3, PS)",–,"target mRNA inhibition ([2]; MM.1R, 1 µM): 16%"
"TTGCTCTTGTTCAAAG (sugars k3 d10 k3, PS)",–,"target mRNA inhibition ([2]; SK-MEL-28, 4 µM): 29%"
"TTGGAAAGACAAGTGC (sugars k3 d10 k3, PS)",–,"target mRNA inhibition ([2]; SK-MEL-28, 4 µM): 15%"
"TTGGTTGGCTGGTCTT (sugars kdddddddddkekeke, PS)",–,"target mRNA inhibition ([2]; MM.1R, 1 µM): -7%"
"TTGGTTGGCTGGTCTT (sugars kkdddddddddkdkdk, PS)",–,"target mRNA inhibition ([2]; MM.1R, 1 µM): 55%"
"TTGTCATGGTGTAGGG (sugars k3 d10 k3, PS)",–,"target mRNA inhibition ([2]; SK-MEL-28, 4 µM): 41%"
"TTGTGAAGCATCCTTT (sugars k3 d10 k3, PS)",–,"target mRNA inhibition ([2]; SK-MEL-28, 4 µM): 63%"
"TTGTGGACACTTTTAG (sugars k3 d10 k3, PS)",–,"target mRNA inhibition ([2]; SK-MEL-28, 4 µM): 49%"
"TTTACACCGTTGCTCA (sugars k3 d10 k3, PS)",–,"target mRNA inhibition ([2]; MM.1R, 1 µM): 3%"
"TTTATATATGACGACT (sugars k3 d10 k3, PS)",–,"target mRNA inhibition ([2]; SK-MEL-28, 4 µM): 39%"
"TTTATGGACCACGCAG (sugars k3 d10 k3, PS)",–,"target mRNA inhibition ([2]; SK-MEL-28, 4 µM): 38%"
"TTTGAAGCAACACGGG (sugars k3 d10 k3, PS)",–,"target mRNA inhibition ([2]; SK-MEL-28, 4 µM): 47%"
"TTTTAGTGTTACTTGC (sugars k3 d10 k3, PS)",–,"target mRNA inhibition ([2]; SK-MEL-28, 4 µM): 32%"
"TTTTATATATGACGAC (sugars k3 d10 k3, PS)",–,"target mRNA inhibition ([2]; SK-MEL-28, 4 µM): 34%"
"TTTTATGGACCACGCA (sugars k3 d10 k3, PS)",–,"target mRNA inhibition ([2]; SK-MEL-28, 4 µM): 31%"
"TTTTGGCTCCCTCAGG (sugars k3 d10 k3, PS)",–,"target mRNA inhibition ([2]; MM.1R, 1 µM): -3%"
